Patent US12364718B2, “Microbial compositions to increase the production of PCA from polyphenols” (priority 2020, dated 2025)

Assays:
[1] = test system: Bovine Aortic Endothelial Cells (BAEC); assay: Inflammatory marker gene expression in LPS stimulated bovine endothelial cells (qPCR); assay type: cell-based; set-up: Cox-2 gene expression: dose or concentration left out as unconfirmed; settings: LPS stimulation, 6 hours, qPCR vs GAPDH
Method: To determine potential mode of action of PCA, in vitro studies were performed using Bovine Aortic Endothelial Cells (BAEC). Stress was induced in mammalian endothelial cells using a lipopolysaccharide (LPS) model, which causes an inflammatory response through inflammatory cytokine, NO and prostaglandin release. After 6 hours, cells were lysed and cellular RNA was recovered using Direct-zol RNA MiniPrep Plus kit (Zymo Research) following the manufacturer's instructions. RNA was converted to cDNA using the QuantiNova Reverse Transcription Kit (Qiagen). Gene expression was then quantified using the QuantiTect SYBR Green PCR kit with primers specific for inflammatory markers. Inducible nitric oxide expression was screened using primers iNOSF ([…], SEQ ID NO: 7) and iNOSR ([…], SEQ ID NO: 8), Cyclo-oxygenase 2 primers, COX2F ([…], SEQ ID NO: 9) and COX2R ([…], SEQ ID NO: 10), and Interleukin-6 primers IL6F ([…], SEQ ID NO: 11) and IL6R ([…], SEQ ID NO: 12) compared against the house keeping gene GAPDH, primers GAPDH-F ([…], SEQ ID NO: 13) and GAPDH-R ([…], SEQ ID NO: 14). Quantitative PCR reactions were set up in 20 μl volumes as per the manufacturer's recommendations (Qiagen). Thermocycler conditions started with a 15 min denaturation at 95° C. followed by 40 cycles of denaturation at 95° C. for 15 seconds, annealing at 60° C. for 30 seconds and extension at 60° C. for 30 seconds before a melt curve.

B. subtilis 1579 = assay: National Antimicrobial Resistance Monitoring System (NARMS) panel screening, MIC in […] 96-well plate; assay type: cell-based, Bacillus subtilis; set-up: Minimum Inhibitory Concentrations (MIC), 1579a / Minimum Inhibitory Concentrations (MIC), 1579b: unit not given here; settings: for MIC interpretation (susceptible/intermediate/resistant), 1579a / Minimum Inhibitory Concentrations (MIC), 1579a: duplicate a; for MIC interpretation (susceptible/intermediate/resistant), 1579a / MIC interpretation (susceptible/intermediate/resistant), 1579b: CLSI M45 Bacillus spp. or NARMS Enterococcus breakpoints; for MIC interpretation (susceptible/intermediate/resistant), 1579b / Minimum Inhibitory Concentrations (MIC), 1579b: duplicate b; for Minimum Inhibitory Concentrations (MIC), 1579a / Minimum Inhibitory Concentrations (MIC), 1579b: Mueller-Hinton broth, 37° C., read at 18 hours
Method: Methods. […] A sterile swab was used to take a portion of the pellet and resuspended in sterile ddH2O tubes; a 0.5 McFarland standard was used to determine the optimal dilution. 15 microliters of the ddH2O was transferred into the 5 mL tubes of Mueller-Hinton broth and the mixture was vortexed and poured into a sterile boat. A p200 multi-channel pipette was used to transfer 50 microliters into each well of the […] 96-well microtiter plate (CMV3AGPF) plate (FIG. 3) and sealed. The plates were incubated at 37° C. overnight. The plates were removed at 18 hours and each well was given a result of either positive or negative depending on if there was any growth in the well.

Compound | IL-6 expression ([1]; 1 g/ml and 10 µg/ml PCA) | iNOS gene expression ([1]; 1 g/ml and 10 µg/ml PCA) | Cox-2 gene expression ([1]; PCA) | MIC interpretation (susceptible/intermediate/resistant), 1579a (B. subtilis 1579) | MIC interpretation (susceptible/intermediate/resistant), 1579b (B. subtilis 1579) | Minimum Inhibitory Concentrations (MIC), 1579a (B. subtilis 1579) | Minimum Inhibitory Concentrations (MIC), 1579b (B. subtilis 1579)
O=C(O)c1ccc(O)c(O)c1 [PCA, protocatechuic acid] | dose dependently decreased | decreased | decreased |  |  |  | 
CCCCCCCCCC(=O)N[C@@H](Cc1c[nH]c2ccccc12)C(=O)N[C@H](CC(N)=O)C(=O)N[C@@H](CC(=O)O)C(=O)N[C@@H]1C(=O)NCC(=O)N[C@@H](CCCN)C(=O)N[C@@H](CC(=O)O)C(=O)N[C@H](C)C(=O)N[C@@H](CC(=O)O)C(=O)NCC(=O)N[C@H](CO)C(=O)N[C@@H]([C@H](C)CC(=O)O)C(=O)N[C@@H](CC(=O)c2ccccc2N)C(=O)O[C@@H]1C [Daptomycin] |  |  |  | S | S |  | 
CN(C)c1cc(NC(=O)CNC(C)(C)C)c(O)c2c1C[C@H]1C[C@H]3[C@H](N(C)C)C(O)=C(C(N)=O)C(=O)[C@@]3(O)C(O)=C1C2=O [Tigercycline] |  |  |  | S | S |  | 
CN[C@H](CC(C)C)C(=O)N[C@H]1C(=O)N[C@@H](CC(N)=O)C(=O)N[C@H]2C(=O)N[C@H]3C(=O)N[C@H](C(=O)N[C@H](C(=O)O)c4cc(O)cc(O)c4-c4cc3ccc4O)[C@H](O)c3ccc(c(Cl)c3)Oc3cc2cc(c3O[C@@H]2O[C@H](CO)[C@@H](O)[C@H](O)[C@H]2O[C@H]2C[C@](C)(N)[C@H](O)[C@H](C)O2)Oc2ccc(cc2Cl)[C@H]1O [Vancomycin] |  |  |  | S | S |  | 
Gentamycin |  |  |  | S | S | 128 | 128
Penicillin |  |  |  | S | S | 1 | 0.5
Quinupristin/dalfopristin |  |  |  |  |  | 4 | 32
